This passage reports IC50 results from BindingDB's records for doi:10.1021/jm051134w (Parion Sciences, 2006).

Broadly, the IC50 is the concentration at which inhibition is half-maximal. A high value points to weaker potency in that assay.

In this assay the target is Amiloride-sensitive sodium channel (Canis familiaris). In words: Inhibition of dog bronchi prototypical epithelial sodium channel by electrophysiological assay.
For `NC(=NCCCCc1ccc(N)cc1)NC(=O)c1nc(Cl)c(N)nc1N` [1-(4-(4-aminophenyl)butyl)-3-(3,5-diamino-2-chloropyrazine-6-carbonyl)guanidine], the IC50 was determined as 21 nM.

`COC(=O)c1ccc(CCCCN=C(N)NC(=O)c2nc(Cl)c(N)nc2N)cc1` [4-{4-[N'-(3,5-diamino-6-chloropyrazine-2-carbonyl)guanidino]-butyl}benzoic acid methyl ester] showed an IC50 of 22 nM.

With `NC(=NCCCCc1ccc(C(=O)O)cc1)NC(=O)c1nc(Cl)c(N)nc1N` [4-{4-[N'-(3,5-diamino-6-chloropyrazine-2-carbonyl)guanidino]-butyl}benzoic acid], the IC50 was determined as 51 nM.

In turn, `NC(=NCCCCc1ccc(OC2O[C@H](C(=O)O)[C@@H](O)[C@H](O)[C@H]2O)cc1)NC(=O)c1nc(Cl)c(N)nc1N` (stereo not given in full) [6-(4-{4-[N'-(3,5-diamino-6-chloropyrazine-2-carbonyl)-guanidino]butyl}phenoxy)-3,4,5-trihydroxytetrahydropyran-2-carboxylic acid] yielded an IC50 of 73 nM.

Compound `NC(=NCCCCc1ccccc1OCC(O)CO)NC(=O)c1nc(Cl)c(N)nc1N` (stereo not given) [N-(3,5-diamino-6-chloropyrazine-2-carbony)-N'-{4-[2-(2,3-dihydroxypropoxy)-phenyl]butyl}guanidine] returned an IC50 of 28 nM.

For `NC(=NCCCCc1cccc(OCC(O)CO)c1)NC(=O)c1nc(Cl)c(N)nc1N` (stereo not given) [N-(3,5-diamino-6-chloropyrazine-2-carbony)-N'-{4-[3-(2,3-dihydroxypropoxy)-phenyl]butyl}guanidine], the midpoint of inhibition, the IC50, lay at 26 nM.

For the compound `NC(=NCCO)NC(=O)c1nc(Cl)c(N)nc1N` [N-(3,5-diamino-6-chloropyrazine-2-carbonyl)-N'-(2-hydroxyethyl)guanidine], 107 nM corresponded to half-maximal inhibition (IC50).

Compound `NC(=NCCCCc1ccccc1)NC(=O)c1nc(Cl)c(N)nc1N` [N-(3,5-diamino-6-chloropyrazine-2-carbonyl)-N'-(4-phenylbutyl)guanidine] displayed an IC50 of 29 nM.

The compound `NC(=NCCCCCc1ccccc1)NC(=O)c1nc(Cl)c(N)nc1N` [N-(3,5-diamino-6-chloropyrazine-2-carbonyl)-N'-(5-phenylpentyl)guanidine] showed an IC50 of 68 nM.

With `NC(=NCCCCCCCCc1ccccc1)NC(=O)c1nc(Cl)c(N)nc1N` [N-(3,5-diamino-6-chloropyrazine-2-carbonyl)-N'-(8-phenyloctyl)guanidine], the IC50 came out at 477 nM.

Compound `NC(=NCCc1ccc(O)cc1)NC(=O)c1nc(Cl)c(N)nc1N` [N-(3,5-diamino-6-chloropyrazine-2-carbonyl)-N'-[2-(4-hydroxyphenyl)ethyl]-guanidine] displayed an IC50 of 62 nM.

In turn, `COc1ccc(COCCN=C(N)NC(=O)c2nc(Cl)c(N)nc2N)cc1` [N-(3,5-diamino-6-chloropyrazine-2-carbonyl)-N'-[2-(4-methoxybenzyloxy)ethyl]-guanidine] gave an IC50 of 41 nM.

Compound `NC(=NCCCOc1ccc(O)cc1)NC(=O)c1nc(Cl)c(N)nc1N` [N-(3,5-diamino-6-chloropyrazine-2-carbonyl)-N'-[3-(4-hydroxyphenoxy)propyl]-guanidine] had a half-maximal inhibitory concentration (IC50) of 32 nM.

`NC(=NCCCc1ccc(O)cc1)NC(=O)c1nc(Cl)c(N)nc1N` [N-(3,5-diamino-6-chloropyrazine-2-carbonyl)-N'-[3-(4-hydroxyphenyl)propyl]-guanidine]: the IC50 is 88 nM.

For the compound `COc1ccc(CCCN=C(N)NC(=O)c2nc(Cl)c(N)nc2N)cc1` [N-(3,5-diamino-6-chloropyrazine-2-carbonyl)-N'-[3-(4-methoxyphenyl)propyl]-guanidine], it took 124 nM to reach half-maximal inhibition (IC50).

`NC(=NCCCCc1ccc(CO)cc1)NC(=O)c1nc(Cl)c(N)nc1N` [N-(3,5-diamino-6-chloropyrazine-2-carbonyl)-N'-[4-(4-hydroxymethylphenyl)-butyl]guanidine] returned an IC50 of 14 nM.

In the case of `COc1ccc(CCCCN=C(N)NC(=O)c2nc(Cl)c(N)nc2N)cc1` [N-(3,5-diamino-6-chloropyrazine-2-carbonyl)-N'-[4-(4-methoxyphenyl)butyl]-guanidine], the IC50 was 15 nM.

Consider `NC(=NCCCCc1cccc(O)c1)NC(=O)c1nc(Cl)c(N)nc1N` [N-(3,5-diamino-6-chloropyrazine-2-carbonyl)-N'-[4-(5-hydroxyphenyl)butyl]-guanidine], for which the IC50 was found to be 20 nM.

On to `COc1ccc(CCCCCN=C(N)NC(=O)c2nc(Cl)c(N)nc2N)cc1` [N-(3,5-diamino-6-chloropyrazine-2-carbonyl)-N'-[5-(4-methoxyphenyl)pentyl]-guanidine], for which 77 nM corresponded to half-maximal inhibition (IC50).

Consider `CCCCCCN=C(N)NC(=O)c1nc(Cl)c(N)nc1N` [N-(3,5-diamino-6-chloropyrazine-2-carbonyl)-N'-hexylguanidine], for which it took 87 nM to reach half-maximal inhibition (IC50).

As to `CCCCCCCCN=C(N)NC(=O)c1nc(Cl)c(N)nc1N` [N-(3,5-diamino-6-chloropyrazine-2-carbonyl)-N'-octylguanidine], inhibition was half-maximal at 108 nM (IC50).

In turn, `NC(=NCCCCc1ccccc1OCCO)NC(=O)c1nc(Cl)c(N)nc1N` [N-(3,5-diamino-6-chloropyrazine-2-carbonyl)-N'-{4-[2-(2-hydroxyethoxy)phenyl]-butyl}guanidine] yielded an IC50 of 31 nM.

`NC(=NCCCCc1cccc(OCCO)c1)NC(=O)c1nc(Cl)c(N)nc1N` [N-(3,5-diamino-6-chloropyrazine-2-carbonyl)-N'-{4-[3-(2-hydroxyethoxy)phenyl]-butyl}guanidine]: the IC50 was found to be 17 nM.

In turn, `NC(=NCCCCc1ccc(OCCO)cc1)NC(=O)c1nc(Cl)c(N)nc1N` [N-(3,5-diamino-6-chloropyrazine-2-carbonyl)-N'-{4-[4-(2-hydroxyethoxy)phenyl]-butyl}guanidine] registered an IC50 of 9 nM.

On to `NC(=NCCCCc1ccc(OCCCO)cc1)NC(=O)c1nc(Cl)c(N)nc1N` [N-(3,5-diamino-6-chloropyrazine-2-carbonyl)-N'-{4-[4-(3-hydroxypropoxy)phenyl]-butyl}guanidine], for which the 50% inhibitory concentration (IC50) is 7 nM.
